One data set concerns JAK2/TYK2. As to the kind of experiment: Cell level activity test of JAK2/TYK2 (IL-12 mediated IFNγ expression in NK92 cells). In kind it is cell-based. The following applies: NK92, 24 h, IFNγ in supernatant by ELISA, NK92 cells with IL-12, 24 h. An excerpt: TYK2 belongs to the JAK family, and can accept the ligand acting on the coupled receptor signal to regulate downstream signal activator of transcription (STAT) phosphorylation. Phosphorylation of STAT can regulate the expression of downstream related genes, leading to changes in physiological functions such as cell proliferation and differentiation. IL-12 mediates IFNγ expression in NK92 cells through JAK2/TYK2.
Therefore, by inhibiting TYK2 activity, inhibition of this cascade pathway leads to a decrease in IFNγ expression. However, IL-2 can induce NK92 proliferation and produce IFNγ through receptor-coupled […], so the influence of IL-2 needs to be ruled out. In this experiment, the activity of compounds on JAK2/TYK2 was evaluated by detecting the expression of IFNγ at various compound concentrations.
The test compound was dissolved in DMSO, prepared into a 20 mM stock solution, and stored at -20° C. for future use. The mother solution was diluted 10 times with DMSO to make a 2 mM solution, then diluted with medium to an initial concentration of […], and then diluted 3-fold with medium containing 5% DMSO to obtain a prepared concentration gradient of […], 33333.3 nM, 11111.1 nM, 3703.70 nM, 1234.57 nM, 411.523 nM, 137.174 nM, 45.7247 nM, 15.2416 nM; 10 ul of the above-mentioned concentration of drugs were added into a 96-well plate to obtain the final concentrations of […], 3333.3 nM, 1111.1 nM, 370.4 nM, 123.5 nM, 41.1 nM, 13.7 nM, 4.6 nM, 1.52 nM;
NK92 cells were resuscitated and cultured, 16 h before the experiment, the medium was replaced with interleukin-free medium. The mixture was centrifuged and IL-12 medium was added to resuspend the cells, seeded 95 ul in a 96-well plate at a density of 20,000 cells/well, 10 ul of the above gradual dilution was added and incubated for 24 h, centrifuged to take the supernatant, diluted 3-fold with pure water, and the IFNγ concentration of the supernatant was detected by ELISA, the IC50 value was calculated.

The next data set deals with JAK1/TYK2. As to the kind of experiment: Cell level activity test of JAK1/TYK2 (IFN-α induced STAT3 phosphorylation in PBMC). Format: cell-based. The following applies: Homo sapiens; P-STAT3 by ELISA in PBMC, compound 1 h, IFN-α 5000 U/mL 15 min; read-out: IC50 nM (JAK 1 /TYK2). The protocol: IFN-α can induce the phosphorylation of STAT3 downstream of JAK1/TYK2 in PBMC, and by measuring the level of STAT3 phosphorylation, the activity of the compound on JAK1/TYK2 at the cell level can be reflected.
Whole blood was collected from healthy subjects, anticoagulated with heparin sodium, and PBMC (human peripheral blood mononuclear cells) were extracted. PBMC were seeded in a 96-well culture plates at a density of 1*106/well. Positive wells and negative wells were added with the same volume of DMSO as the compound, and the final concentration of DMSO was 0.5%. The compounds were incubated with the cells at 37° C. for 1 h, and then stimulated by adding IFN-α at a final concentration of 5000 U/mL, an equal volume of medium was added to the negative wells, and incubated for 15 min. The cells were centrifuged to remove the supernatant, then lysed, and P-STAT3 was measured according to the instructions of the ELISA kit, the absorbance was read at 450 nm, and the IC50 value or inhibition rate was calculated.

The nature of data set [1]: Pharmacokinetic evaluation in rats after intravenous injection and oral administration. Format: in vivo. The following applies: rat, plasma; for AUC(0-t): read-out: PK AUClast; for Cmax: read-out: PK Cmax; for half-life: read-out: PK T½ (converted). The protocol: The analytical LC/MS/MS system includes an Agilent 1200 series vacuum degasser, a binary syringe pump, an orifice plate autosampler, a column oven, and an Agilent G6430 triple quadrupole mass spectrometer with an electrospray ionization (ESI) source.
Agilent XDB-C18, 2.1 × 30 mm, 3.5 µM column was used to analysis, 5 µL sample was injected. Analytical conditions: Mobile phases were 0.1% formic acid in water (A) and 0.1% formic acid in methanol (B). The flow rate was 0.4 mL/min.
In addition, Agilent 6330 series LC/MS/MS spectrometer was used for analysis, equipped with G1312A binary syringe pump, G1367A automatic sampler and G1314C UV detector; LC/MS/MS spectrometer used ESI radiation source. Optimum analysis was achieved using standards with appropriate cation model processing and MRM conversion for each analyte. A Capcell MP-C18 column, 100 × 4.6 mm I.D., 5 µM (Phenomenex, Torrance, California, USA) was used during the analysis. Mobile phase was 5 mM ammonium acetate, 0.1% methanol in water (A): 5 mM ammonium acetate, 0.1% methanol in acetonitrile (B) (70/30, v/v); flow rate was 0.6 mL/min; column temperature was maintained at room temperature; 20 µL of sample was injected.
The present invention evaluates the pharmacokinetic studies of the compounds of the present invention in mice, rats, dogs or monkeys. The compounds of the present invention were administered in the form of aqueous solution or 2% HPMC + 1% Tween-80 aqueous solution, 5% DMSO + 5% saline solution, 4% MC or capsule. For intravenous administration, animals were dosed at about 0.5, 0.6, 1 or 2 mg/kg. The oral doses (p.o.) were 5 or 10 mg/kg for rats and mice, and 10 mg/kg for dogs and monkeys. Bloods (0.3 mL) were taken at time points 0.25, 0.5, 1.0, 2.0, 3.0, 4.0, 6.0, 8.0, 12 and 24 h and centrifuged at 3,000 or 4,000 rpm for 10 min. Plasma solutions were collected and stored at -20° C. or -70° C. until LC/MS/MS analysis as described above. […] Table 2 is the experimental results of the pharmacokinetic characteristics of the compounds provided in the examples of the present invention in rats.

Where two headings read alike, the source gives them in different places.

`CC(=O)Nc1cc2c(-c3cc(OCCC(C)(C)C#N)c4c(n3)C3(CCOC3)OCC4)cn(C)c2cn1` (centres unmarked) [Example 40, N-(3-(4′-(3-Cyano-3-Methylbutoxy)-4,5,5′,6′-Tetrahydro-2H-Spiro[Furan-3,8′-Pyrano[3,4-b]Pyridin]-2′-yl)-1-Methyl-1H-Pyrrolo[2,3-c]Pyridin-5-yl)Acetamide] came in with an IC50 in the data set on JAK2/TYK2 of 152 nM.
Regarding `CC(=O)Nc1cc2c(-c3cc(NCCC(C)(C)O)c4c(n3)C3(CCOC3)OCC4)cn(C)c2cn1` (centres unmarked) [Example 48, N-(3-(4′-((3-Hydroxy-3-Methylbutyl)Amino)-4,5,5′,6′-Tetrahydro-2H-Spiro[Furan-3,8′-Pyrano[3,4-b]Pyridin]-2′-yl)-1-Methyl-1H-Pyrrolo[2,3-c]Pyridin-5-yl)Acetamide], in the data set with JAK2/TYK2, the IC50 amounted to 115 nM.
`CC(=O)Nc1cc2c(-c3cc(OCCC(C)(C)O)c4c(n3)C3(CCOC3)OCC4)cn(C(C)C)c2cn1` (centres unmarked) [Example 50, N-(3-(4′-(3-Hydroxy-3-Methylbutoxy)-4,5,5′,6′-Tetrahydro-2H-Spiro[Furan-3, 8′-Pyrano[3,4-b]Pyridin]-2′-yl)-1-Isopropyl-1H-Pyrrolo[2,3-c]Pyridin-5-yl)Acetamide] had an IC50 in the data set with JAK2/TYK2 of 47 nM.
Same read-out and setting: with `CC(=O)Nc1cc2c(-c3cc(CC#N)c4c(n3)C3(CCOC3)OCC4)cn(C)c2cn1` (centres unmarked) [Example 42, N-(3-(4′-(Cyanomethyl)-4,5,5′,6′-Tetrahydro-2H-Spiro[Furan-3,8′-Pyrano[3,4-b]Pyridin]-2′-yl)-1-Methyl-1H-Pyrrolo[2,3-c]Pyridin-5-yl)Acetamide] the figure was 9.6 nM; with `COCCOCc1cc(-c2cn(C)c3cnc(NC(C)=O)cc23)nc2c1CCOC21CCOC1` (centres unmarked) [Example 36, N-(3-(4′-((2-Methoxyethoxy)Methyl)-4,5,5′,6′-Tetrahydro-2H-Spiro[Furan-3,8 ‘-Pyrano[3,4-b]Pyridin]-2′-yl)-1methyl-1H-Pyrrolo[2,3-c]Pyridin-5-yl)Acetamide], 52.9 nM.
For `CC(=O)Nc1cc2c(-c3cc(S(C)(=O)=O)c4c(n3)C3(CCOC3)OCC4)cn(C)c2cn1` (centres unmarked) [Example 23, N-(1-meThyl-3-(4′-(Methylsulfonyl)-4,5,5′,6′-Tetrahydro-2H-Spiro[Furan-3,8′-Pyrano[3,4-b]Pyridin]-2′-yl)-1H-Pyrrolo[2,3-c]Pyridin-5-yl)Acetamide], the IC50 with JAK1/TYK2 was 104 nM.
The same measure, in the same setting: with `CC(=O)Nc1cc2c(-c3ccc4c(n3)C3(CCOC3)OC(=O)N4C)cn(C)c2cn1` (centres unmarked) [Example 10, N-(1-Methyl-3-(1′-Methyl-2′-Oxo-1′,2′,4,5-Tetrahydro-2H-Spiro[Furan-3,4′-Pyrido[3,2-d][1,3]Oxazin]-6′-yl)-1H-Pyrrolo[2,3-c]Pyridin-5-yl)Acetamide] the figure was greater than 1000 nM; with `COCc1cc(-c2cn(C)c3cnc(NC(C)=O)cc23)nc2c1CCOC21CCOC1` (centres unmarked) [Example 8, N-(3-(4′-(Methoxymethyl)-4,5,5′,6′-Tetrahydro-2H-Spiro[Furan-3,8′-Pyrano[3,4-b]Pyridin]-2′-yl)-1-Methyl-1H-Pyrrolo[2,3-c]Pyridin-5-yl)Acetamide], 41.2 nM; with `COCCCOc1cc(-c2cn(C)c3cnc(NC(C)=O)cc23)nc2c1CCOC21CCOC1` (centres unmarked) [Example 22, N-(3-(4′-(3-Methoxypropoxy)-4,5,5′,6′-Tetrahydro-2H-Spiro[Furan-3,8′-Pyrano[3,4-b]Pyridin]-2′-yl)-1-Methyl-1H-Pyrrolo[2,3-c]Pyridin-5-yl)Acetamide], 7.23 nM.
In the case of `CC(=O)Nc1cc2c(-c3cc(OCCC(C)(C)O)c4c(n3)C3(CCOC3)OCC4)cn(C)c2cn1` (centres unmarked) [Example 26, N-(3-(4′-(3-Hydroxy-3-Methylbutoxy)-4,5,5′,6′-Tetrahydro-2H-Spiro[Furan-3, 8′-Pyrano[3,4-b]Pyridin]-2′-yl)-1-Methyl-1H-Pyrrolo[2,3-c]Pyridin-5-yl)Acetamide], in the data set on JAK1/TYK2, the IC50 worked out at 110 nM. Moreover, in data set [1] (IV 2 mg/kg), the AUC(0-t) was determined as 494 ng·h/mL, the maximum concentration (Cmax) amounted to 289 ng/mL and the half-life was 1.65 h. Moreover, in data set [1] (PO 5 mg/kg), the AUC(0-t) stood at 2290 ng·h/mL, the maximum concentration (Cmax) was 612 ng/mL and the half-life was 3.62 h. In addition, in data set [1] (oral bioavailability, PO 5 mg/kg), the bioavailability stood at 98.5%.
Regarding `COC1(c2cccc(-c3cn(C)c4cnc(NC(C)=O)cc34)n2)CCOC1` (centres unmarked) [Control compound, reference compound], in the data set with JAK1/TYK2, the IC50 is 52.7 nM.
Same read-out and setting: with `CC(=O)Nc1cc2c(-c3cc(C(F)F)c4c(n3)C3(CCOC3)OCC4)cn(C)c2cn1` (centres unmarked) [Example 7, N-(3-(4′-(Difluoromethyl)-4,5,5′,6′-Tetrahydro-2H-Spiro[Furan-3,8′-Pyrano[3,4-b]Pyridin]-2′-yl)-1-Methyl-1H-Pyrrolo[2,3-c]Pyridin-5-yl)Acetamide] the figure was 14.1 nM; with `CC(=O)Nc1cc2c(-c3cc(OC(C)C)c4c(n3)C3(CCOC3)OCC4)cn(C)c2cn1` (centres unmarked) [Example 17, N-(3-(4′-Isopropoxy-4,5,5′,6′-Tetrahydro-2H-Spiro[Furan-3,8′-Pyrano[3,4-b]P yridine]-2′-yl)-1-Methyl-1H-Pyrrolo[2,3-c]Pyridin-5-yl)Acetamide], 126 nM; with `CC(=O)Nc1cc2c(-c3cc(C#N)c4c(n3)C3(CCOC3)OCC4)cn(C)c2cn1` (centres unmarked) [Example 25, N-(3-(4′-Cyano-4,5,5′,6′-Tetrahydro-2H-Spiro[Furan-3,8′-Pyrano[3,4-b]Pyridine]-2′-yl)-1-Methyl-1H-Pyrrolo[2,3-c]Pyridin-5-yl)Acetamide], 45.5 nM.
With `CC(=O)Nc1cc2c(-c3ccc4c(n3)C3(CCOC3)OC(C)(C)N4C)cn(C)c2cn1` (centres unmarked) [Example 13, N-(1-Methyl-3-(1′,2′,2′-Trimethyl-1′,2′,4,5-Tetrahydro-2H-Spiro[Furan-3,4′-P yrido[3,2-d][1,3]Oxazin]-6′-yl)-1H-Pyrrolo[2,3-c]Pyridin-5-yl)Acetamide], the IC50 in the data set with JAK1/TYK2 was determined as 104 nM.
Take `CC(=O)Nc1cc2c(-c3ccc4c(n3)C3(CCCOC3)OC4)cn(C)c2cn1` (centres unmarked) [Example 11, N-(3-(5′,6′-Dihydro-2′H,4′H,5H-Spiro[Furo[3,4-b]Pyridin-7,3′-Pyran]-2-yl)-1-Methyl-1H-Pyrrolo[2,3-c]Pyridin-5-yl)Acetamide]: the IC50 in the data set with JAK1/TYK2 was greater than 1000 nM.

Source of the values: US20230339977A1, “SUBSTITUTED HETEROARYL COMPOUND, AND COMPOSITION AND APPLICATION THEREOF” (SUNSHINE LAKE PHARMA CO., LTD., priority 2020, published 2023).
